Article PMC7324608 (Scientific Reports, 2020)
Numbering of substitutions follows the chain as printed.

Legend:
[1] = target: T1, HpHtrA (Helicobacter pylori, UniProt G2J5T2); test: in vitro casein cleavage by HpHtrA (Coomassie SDS-PAGE); assay type: biochemical; conditions: 10 µg casein, 250 ng HpHtrA, 16 h, 37 °C; for effect on HtrA-mediated casein degradation: 1 mM
T1 construct: (HpHtrA, G18-K475, UniProt G2J5T2); GST (N, cleaved yes); made in house; host or cells: E. coli BL21
T1 sequence (G2J5T2 18-475): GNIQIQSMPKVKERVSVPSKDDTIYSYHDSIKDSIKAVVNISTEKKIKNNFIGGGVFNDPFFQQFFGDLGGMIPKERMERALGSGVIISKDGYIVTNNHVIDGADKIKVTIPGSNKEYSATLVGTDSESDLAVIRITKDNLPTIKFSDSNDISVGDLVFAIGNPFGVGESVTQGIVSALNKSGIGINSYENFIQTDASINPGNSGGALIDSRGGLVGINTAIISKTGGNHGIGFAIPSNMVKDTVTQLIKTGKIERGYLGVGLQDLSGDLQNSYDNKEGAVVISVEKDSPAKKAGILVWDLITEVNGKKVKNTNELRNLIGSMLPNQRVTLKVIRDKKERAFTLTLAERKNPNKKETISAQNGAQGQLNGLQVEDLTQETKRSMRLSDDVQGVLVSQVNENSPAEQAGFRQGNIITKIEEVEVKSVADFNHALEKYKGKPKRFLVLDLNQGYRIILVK
Excerpt: The proteins were separated by SDS-PAGE and visualized by staining with Coomassie Brilliant Blue G250 (Lactan, Vienna, Austria). […] Proteins were separated using SDS-PAGE and blotted onto a nitrocellulose membrane. Human Cdh1 was detected by an antibody recognizing the EC5 domain of hCdh1 (Abcam, Cambridge, UK) and a polyclonal serum was used to detect HpHtrA[22]. Independent experiments were repeated at least three times.

[2] = test system: BbHtrA; set-up: method as in PMID 26480895; conditions: cited from earlier work
[3] = target: T2, HpHtrA D168A (Helicobacter pylori, UniProt G2J5T2, D168A); test: thermal shift assay; assay type: binding; set-up: (HpHtrA, G18-K475, UniProt G2J5T2); GST (N, cleaved yes); made in house; host or cells: E. coli BL21
T2 sequence (G2J5T2 18-475 D168A): T1 sequence (G2J5T2 18-475) with D151A
Experimental: (§1) Recombinant HpHtrA proteins (wt, S164A, D165A, S166A, D168A) in 50 mM HEPES buffer (pH 7.4) were mixed with SYPRO Orange (Sigma-Aldrich, Vienna, Austria) to final concentrations of 4 µM HpHtrA and 7 × SYPRO Orange in a 96-well PCR plate. […] Fluorescence data was collected using an Applied Bioscience StepOne Plus PCR cycler (Thermo Fisher Scientific, Schwerte, Germany) during a temperature ramp from 25–95 °C (0.5 °C per min) with a 4 min hold at 25 °C and 95 °C. SYPRO Orange binds to exposed hydrophobic regions within the denatured HpHtrA proteins, which increases the fluorescence of the dye[57],[58]. The fluorescence emission signal can then be used to determine the melting temperature of the protein, which is located at the infliction point of the fluorescence signal curve. The experiment was performed in triplicates.

[4] = target: T3, HpHtrA S166A (Helicobacter pylori, UniProt G2J5T2, S166A); test: thermal shift assay; assay type: binding; set-up: (HpHtrA, G18-K475, UniProt G2J5T2); GST (N, cleaved yes); made in house; host or cells: E. coli BL21
T3 sequence (G2J5T2 18-475 S166A): T1 sequence (G2J5T2 18-475) with S149A
Experimental: as §1

[5] = target: T4, HpHtrA wt (Helicobacter pylori, UniProt G2J5T2); test: HpHtrA oligomerization, non-reducing SDS-PAGE; set-up: (HpHtrA, G18-K475, UniProt G2J5T2); GST (N, cleaved yes); made in house; host or cells: E. coli BL21
T4 sequence (G2J5T2 18-475): T1 sequence (G2J5T2 18-475)
Experimental: Non-reducing sample buffer without β-mercaptoethanol was added and the samples were separated by SDS-PAGE containing 0.1% casein (Carl Roth, Karlsruhe, Germany) as a substrate. The gel was incubated for 60 min in renaturing buffer (2.5% Triton X-100) and equilibrated for 30 min in developing buffer (50 mM Tris–HCl, pH 7.4, 200 mM NaCl, 5 mM CaCl2, and 0.02% Brij-35) at room temperature under gentle agitation. Afterwards, the gel was incubated for 24 h at 37 °C in developing buffer under gentle agitation. To visualize caseinolytic activity, the gel was stained in 0.5% Coomassie Brilliant Blue R250 (Carl Roth, Karlsruhe, Germany). For detection of multimers by SDS-PAGE, HpHtrA was separated by SDS-PAGE under non-reducing conditions. Proteins were visualized by staining with Coomassie Brilliant Blue G250. Independent experiments were repeated at least four times.

[6] = low/increasing concentrations of ion

SMILES | concentration giving a slight inhibitory effect on casein cleavage [1] [µM] | effect on HtrA-mediated casein degradation [1] | effect on casein degradation by BbHtrA [2] | thermal destabilization (ΔTm) ([3]; compared with wt and S164A) | thermal destabilization (ΔTm) ([4]; compared with wt and S164A) | stabilization of HpHtrA wt oligomers ([5]; low concentrations, Coomassie-stained SDS-PAGE, non-reducing) | IC100 ([1]; read-out: concentration required to fully inhibit casein cleavage) [µM] | thermal stabilization (ΔTm) [3, 6] | thermal stabilization (ΔTm) [4, 6] | concentration sufficient to enhance oligomerization or the stability of HpHtrA ([5]; Coomassie-stained gel, non-reducing conditions) [µM]
[Cu+2] [Cu^++, CuCl2] | 250 | strongly inhibited | similarly inhibited | more strongly destabilized | more strongly destabilized | only slightly stabilized | – | – | – | –
[Zn+2] [Zn^++, ZnCl2] | 250 | strongly inhibited | similarly inhibited | – | – | – | 500 to 1000 | did not stabilize | did not stabilize | 50
